The numbers were not newly measured in US12247028B2, “Azabicyclo and diazepine derivatives” (Alcon Inc., priority 2017, dated 2025), which cites them from elsewhere.

The conditions of this data set: topical 1% drop; cited from earlier work.

Consider `CN1[C@@H]2CC[C@H]1C[C@@H](OC(=O)C(CO)c1ccccc1)C2` (some centres unmarked) [atropine], for which the “efficacy in the treatment of myopia” value is reported as “effective”; the side effects result was “numerous side effects were reported, including mydriasis (dilation of the pupil) and blurring of near vision due to cycloplegia”.
